Where a SMILES comes first, the peptide text is derived from it. The star is where a group is joined. Cbz = O=C(OCc1ccccc1)*
Tests used:
[1] = target: T1, rabbit reticulocyte 20S proteasome, chymotrypsin-like (CT-L) activity (UniProt G1T4Q9); assay: 20S proteasome chymotrypsin-like (CT-L) activity, Suc-LLVY-AMC hydrolysis; type: biochemical; details: rabbit 20S proteasome, pH 8, 37° C.
T1 construct: IC50 on chymotrypsin-like activity; other: rabbit 20S proteasome, pH 8, 37° C; Rabbit erythrocyte 20S proteasome was obtained from Boston Biochem, Cambridge, USA
Procedure: (§1) Rabbit erythrocyte 20S proteasome was obtained from Boston Biochem, Cambridge, USA. The fluorogenic substrates Suc-LLVY-AMC, Boc-LRR-AMC and Z-LLE-βNA used to measure the proteasome activities CT-L, T-L and PA respectively were purchased from Bachem (France). Other reagents and solvents were purchased from commercial sources. Fluorescence was measured using a BMG Fluostar microplate reader.
(§2) Compounds 1-23 were tested for their potential to inhibit the CT-L, T-L and PA activities of the rabbit reticulocyte 20S proteasome. Enzyme activities were determined by monitoring the hydrolysis of the appropriate fluorogenic substrate (λexc=360, λem=465 nm for AMC substrates, and λexc=340, λem=405 nm for the βNA substrate) for 1 h at 37° C.
(§3) In the in vitro screening, each compound was tested in duplicate against the three activities, at 100 μM and 50 μM in the corresponding buffer. The buffer were (pH 8): 50 mM Tris, 150 mM NaCl, 10% (v/v) glycerol, 0.025% (w/v) SDS, and 3% (v/v) DMSO (CT-L and PA activities); 50 mM Tris, 150 mM NaCl, 10% (v/v) glycerol, and 3% (v/v) DMSO (T-L activity).
(§4) The inhibitory activity of compounds is expressed as IC50, which corresponds to the concentration of proteasome inhibitor leading to a loss of activity of 50%. The values of IC50 were calculated by fitting the experimental data to equation 1: % Inhibition=100×(1−Vi/V0)=100 [I]0/(IC50+[I]0), or equation 2: % Inhibition=100 [I]0^nH/(IC50^nH+[I]0^nH), where Vi is the initial rate in the presence of the inhibitor, V0 is the initial rate in the absence of the inhibitor, [I]0 is the inhibitor concentration, nH is the Hill number (FIG. 1).

[2] = test system: rabbit reticulocyte 20S proteasome, trypsin-like (T-L) activity; assay: 20S proteasome trypsin-like (T-L) activity, Boc-LRR-AMC hydrolysis; type: biochemical; design: key to Inhibition of trypsin-like activity (NI): NI: No Inhibition; details: rabbit 20S proteasome; for Inhibition of trypsin-like activity (NI): screened at 100 μM and 50 μM
Procedure: as §1, §2, §3, §4

human calpain-I = target: T2, human calpain-I (Homo sapiens, UniProt P07384); assay: Selectivity: inhibition of calpain-I; type: biochemical; details: 100 μM compound
T2 sequence (P07384 1-714): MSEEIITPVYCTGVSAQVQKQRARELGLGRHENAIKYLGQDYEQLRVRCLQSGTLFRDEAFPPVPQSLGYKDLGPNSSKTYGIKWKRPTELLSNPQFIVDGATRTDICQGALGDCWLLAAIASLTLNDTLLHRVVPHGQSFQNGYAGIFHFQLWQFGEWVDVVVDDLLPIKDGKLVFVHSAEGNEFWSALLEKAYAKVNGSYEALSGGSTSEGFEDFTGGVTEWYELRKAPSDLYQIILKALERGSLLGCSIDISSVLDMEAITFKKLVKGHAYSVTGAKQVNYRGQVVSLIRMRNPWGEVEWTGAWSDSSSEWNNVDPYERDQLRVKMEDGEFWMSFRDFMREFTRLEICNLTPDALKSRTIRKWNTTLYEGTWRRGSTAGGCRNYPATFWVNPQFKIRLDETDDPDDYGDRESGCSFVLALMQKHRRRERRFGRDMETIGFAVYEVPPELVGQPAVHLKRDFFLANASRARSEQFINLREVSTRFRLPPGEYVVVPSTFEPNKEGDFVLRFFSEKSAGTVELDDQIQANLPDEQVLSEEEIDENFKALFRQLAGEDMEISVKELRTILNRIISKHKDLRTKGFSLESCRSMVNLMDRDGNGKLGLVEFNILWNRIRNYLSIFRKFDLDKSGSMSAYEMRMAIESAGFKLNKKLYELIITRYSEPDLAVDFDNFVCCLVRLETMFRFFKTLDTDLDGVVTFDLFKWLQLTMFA
T2 sequence (P04632 1-268 partner): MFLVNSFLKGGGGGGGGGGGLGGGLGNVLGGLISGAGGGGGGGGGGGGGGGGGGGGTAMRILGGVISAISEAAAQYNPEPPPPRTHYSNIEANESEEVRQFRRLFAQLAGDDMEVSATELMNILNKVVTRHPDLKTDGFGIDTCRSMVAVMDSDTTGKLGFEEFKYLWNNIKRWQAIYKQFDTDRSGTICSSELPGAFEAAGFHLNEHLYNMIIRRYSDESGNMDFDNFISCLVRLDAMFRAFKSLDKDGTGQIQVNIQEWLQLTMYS

[3] = target: rabbit reticulocyte 20S proteasome, post-acid (PA) activity (Oryctolagus cuniculus, UniProt G1T235); assay: 20S proteasome post-acid (PA) activity, Z-LLE-βNA hydrolysis; type: biochemical; design: key to Inhibition of post-acid activity (NI): NI: No Inhibition; details: rabbit 20S proteasome; for Inhibition of post-acid activity (NI): screened at 100 μM and 50 μM
Procedure: as §1, §2, §3, §4

HeLa cells = assay: Cell viability, XTT assay, HeLa; type: cell-based; details: Homo sapiens, 48 h, read-out: EC50, concentration inhibiting cell growth by 50%
Procedure: (§5) The cell survival was determined with the XTT assay. Human cells (HeLa from cervical carcinoma and HEK-293 from epithelial kidney) were obtained from Invitrogen (Cergy-Pontoise, France). The cells were grown at 37° C. in DMEM supplemented with 10% fetal bovine serum (Invitrogen) in a humidified atmosphere of 5% CO2 and 95% air.
(§6) 5×10^3 cells in 100 μL culture medium were exposed for 48 h in 96-well plates to increasing concentrations of compounds: 5-100 μM, final concentration of DMSO is 1% (v/v). The culture medium is then replaced by 100 μL of DMEM F12 culture medium devoid of phenol red and containing a mixture of XTT (0.3 mg/mL) and PMS (8.3 nM) (XTT: 2,3-bis[2-methoxy-4-nitro-5-sulfophenyl-2H-tetrazolium-5-carboxyanilide sodium; PMS: phenazine methosulfate, both purchased from Sigma, Saint Quentin Fallavier, France). Cells were then incubated for 3 h at 37° C.
(§7) During this incubation, the mitochondrial deshydrogenases of viable cells hydrolyzed the tetrazolium cycle of XTT, leading to orange formazan crystals soluble in aqueous solution.
(§8) The orange color was measured at 485 nm using a BMG Fluostar microplate reader.
(§9) In control experiments, cells were treated by the vehicule (DMSO) at the same concentration than that used for the inhibitors.
The cytotoxicity activity of drags was expressed as the concentration inhibiting cell growth by 50% (EC50) calculated from the survival curves. […]

[4] = target: T3, rabbit reticulocyte 20S proteasome, chymotrypsin-like (CT-L) activity (Oryctolagus cuniculus, UniProt G1T4Q9); assay: 20S proteasome chymotrypsin-like (CT-L) activity, Suc-LLVY-AMC hydrolysis; type: biochemical; details: rabbit 20S proteasome, pH 8, 37° C.
T3 construct: IC50 on chymotrypsin-like activity; other: rabbit 20S proteasome, pH 8, 37° C; Rabbit erythrocyte 20S proteasome was obtained from Boston Biochem, Cambridge, USA
T3 sequence (G1T4Q9 1-263): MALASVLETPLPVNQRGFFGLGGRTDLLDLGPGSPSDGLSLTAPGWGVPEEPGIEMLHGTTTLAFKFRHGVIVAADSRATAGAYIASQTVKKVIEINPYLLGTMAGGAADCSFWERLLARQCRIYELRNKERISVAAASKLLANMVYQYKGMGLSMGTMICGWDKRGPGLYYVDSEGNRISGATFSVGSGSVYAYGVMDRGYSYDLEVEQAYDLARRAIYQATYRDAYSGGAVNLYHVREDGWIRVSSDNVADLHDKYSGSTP
Procedure: as §1, §2, §3, §4

HEK-293 cells = assay: Cell viability, XTT assay, HEK-293; type: cell-based; details: Homo sapiens, HEK293, 48 h, read-out: EC50, concentration inhibiting cell growth by 50%
Procedure: as §5, §6, §7, §8, §9
The cytotoxicity activity of drags was expressed as the concentration inhibiting cell growth by 50% (EC50) calculated from the survival curves. The experimental data are fitted to the following equation, describing the relationship between % survival and drug concentration (C):
% cell survival=100−(Emax×C^n)/(C^n+EC50^n)
where C is the drug concentration; Emax is the maximum drug effect (%); EC50 is the concentration that produces one-half of the maximum effect; and n is the Hill constant, which describes the shape of the curve.

human cathepsin B = human cathepsin B (Homo sapiens, UniProt P07858); assay: Selectivity: inhibition of cathepsin B; type: biochemical; details: 100 μM compound
[5] = target: T4, human erythrocyte 20S proteasome, post-acid (PA) activity (Homo sapiens, UniProt P28072); assay: 20S proteasome post-acid (PA) activity, Z-LLE-βNA hydrolysis; type: biochemical; design: key: NI: No Inhibition; details: screened at 100 and 50 μM
T4 construct: three activities of human erythrocyte 20S proteasome; from tissue; host or cells: human erythrocytes
Procedure: as §1, §4
(§10) Compounds 24, 25 and 31-35 were tested in duplicate against three activities of human erythrocyte 20S proteasome at 100 and 50 μM in the appropriate buffer (pH 7.5): 20 mM Tris HCl, 10% (v/v) glycerol, 0.01% (w/v) SDS and 2% DMSO (CT-L and PA activities); 20 mM Tris HCl, 10% (v/v) glycerol, and 2% DMSO (T-L activity). The inhibitory activities were analyzed as described above for compounds 1-23.

[6] = target: T5, human erythrocyte 20S proteasome, chymotrypsin-like (CT-L) activity (Homo sapiens, UniProt P28074); assay: 20S proteasome chymotrypsin-like (CT-L) activity, Suc-LLVY-AMC hydrolysis; type: biochemical; details: pH 7.5
T5 construct: three activities of human erythrocyte 20S proteasome; from tissue; host or cells: human erythrocytes
Procedure: as §1, §4, §10

[7] = target: T6, human erythrocyte 20S proteasome, trypsin-like (T-L) activity (Homo sapiens, UniProt Q99436); assay: 20S proteasome trypsin-like (T-L) activity, Boc-LRR-AMC hydrolysis; type: biochemical; design: key to Inhibition of trypsin-like activity (NI): NI: No Inhibition; details: screened at 100 and 50 μM
T6 construct: three activities of human erythrocyte 20S proteasome; from tissue; host or cells: human erythrocytes
Procedure: as §1, §4, §10

[8] = test system: cellular proteasome in HEK-293 cells; assay: Inhibition of proteasome in a cell assay: accumulation of ubiquitinylated proteins (Western blot); type: cell-based, Human; details: 16 h, 10 μM
Procedure: Indeed, if the proteasomes are inhibited, in particular the proteasome 26S, the degradation of ubiquitinalyted proteins should be blocked, and those proteins should accumulate.
240 000 HEK-293 cells were incubated for 16 h, in presence of oxadiazole derivatives at the concentration of 10 μM.
After extraction of the proteins (centrifugation of lysed cells), the concentration of proteins in the sample was determined with the BCA (Bicinchoninic Acid) protein Assay.
3 μg of proteins for each sample were deposited into a SDS-PAGE gel at 8%.

Sequence of rabbit reticulocyte 20S proteasome, post-acid (PA) activity (G1T235 entry or part of it): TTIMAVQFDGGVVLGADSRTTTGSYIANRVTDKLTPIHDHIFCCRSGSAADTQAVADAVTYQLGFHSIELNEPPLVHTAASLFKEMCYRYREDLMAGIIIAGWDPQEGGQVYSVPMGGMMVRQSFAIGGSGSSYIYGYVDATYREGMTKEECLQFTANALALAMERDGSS

| Structure (SMILES) | IC50 [1] [nM] | Inhibition of trypsin-like activity (NI) [2] | Inhibition of post-acid activity (NI) [3] | also measured |
| --- | --- | --- | --- | --- |
| COc1ccc(-c2noc(CN(C(=O)COc3ccccc3)C(C)C)n2)cc1 [Compound 9] | 3960 ± 750 | NI | NI | inhibition at 100 µM (human calpain-I): ≤ 30% |
| C=CCN(Cc1nc(-c2ccc(OC)cc2)no1)C(=O)COc1ccccc1 [Compound 8] | 1660 ± 120 | NI | NI | inhibition at 100 µM (human calpain-I): ≤ 30% |
| Cc1cccc(-c2noc(CN(C(=O)COc3ccc(C(C)C)cc3)C(C)C)n2)c1 [Compound 2] | ~1000 | NI | NI | EC50 (HeLa cells): 32 ± 3.6 µM |
| C=CCOc1ccc(C(=O)N(Cc2nc(-c3ccc(OC)c(OC)c3)no2)C(C)C)cc1 [Compound 19] |  |  | NI | IC50 [4]: 3.51 ± 0.12 µM; Activation × of trypsin-like activity ([2]; 100 μM compound, fold activation): Activation × 11.5 (100 μM); EC50 (HEK-293 cells): 39.2 ± 2 µM |
| COc1ccc(-c2noc(CN(C(=O)COc3cccc(C)c3)C(C)C)n2)cc1 [Compound 13] | 2330 ± 280 |  | NI | % inhibition (inhibitor concentration) on trypsin-like activity ([2]; 100 μM inhibitor): 28% (100 μM); Inhibition of human cathepsin B (in words) (human cathepsin B): no inhibition |
| COc1ccc(OCC(=O)N(Cc2nc(-c3ccccc3)no2)C(C)C)cc1 [Compound 6] | 1020 ± 160 |  | NI | Inhibition of human calpain-I (in words) (human calpain-I): no inhibition |
| Cc1ccc(-c2noc(CN(C(=O)COc3ccc(C(C)C)cc3)C(C)C)n2)cc1 [Compound 1] | ~7000 | NI | NI | EC50 (HeLa cells): 44 ± 3.8 µM |
| COc1ccc(OCC(=O)N(Cc2nc(-c3ccc(C)cc3)no2)C(C)C)cc1 [Compound 16] | 2490 ± 910 | NI | NI | Inhibition of human calpain-I (in words) (human calpain-I): no inhibition |
| CC(C)N(Cc1nc(CCl)no1)C(=O)COc1ccc(Br)cc1 [Compound 31] |  |  |  | Inhibition of post-acid activity (NI) [5]: NI; IC50 [6]: 2690 ± 220 nM; Inhibition of trypsin-like activity (NI) [7]: NI; EC50 (HEK-293 cells): 16.1 ± 0.5 µM |
| CC(C)C[C@@H](C=O)NC(=O)[C@H](CC(C)C)NC(=O)[C@H](CC(C)C)NC(=O)OCc1ccccc1 [MG132] (Cbz-Leu-Leu-Leu-aldehyde) |  |  |  | Accumulation of ubiquitinylated proteins (anti-ubiquitin Western blot) [8]: induce an accumulation of ubiquitinalyted proteins |
| O=C(Cc1cccc2ccccc12)Nc1cccc(-c2nnc(-c3ccccc3)o2)c1 [Compound 21] |  | NI |  | IC50 [4]: 144 ± 22 µM; inhibition at 100 µM ([3]; 100 μM inhibitor, read-out: % inhibition (inhibitor concentration) on post-acid activity): 22%; EC50 (HEK-293 cells): 26 ± 2.3 µM |
